Test results from patent publication US9428519B2, “Acylated derivative of homoharringtonine, preparation method therefor, and application thereof” (HANGZHOU BENSHENG PHARMACEUTICAL CO., LTD., priority 2011, dated 2016).
≈ marks a conversion by molar mass, not a printed value.

Legend:
[1] = system: Becap37 (human breast cancer cell); test: MTT growth inhibition of human solid tumor cells, 72 h; assay type: cell-based
Procedure: (§1) Human solid tumor cell lines: Hep-2 (laryngeal carcinoma), A549 (human lung cancer), CaES-17 (esophageal cancer cell), PC-3 (prostate cancer), CNE (nasopharyngeal carcinoma cell), and SK-OV-3 (ovarian cancer cell), all of which are purchased from China Center For Type Culture Collection; RKO (human colon adenocarcinoma cell), MGC 803 (human gastric cancer cell), MG63 (osteosarcoma) and U87 MG (malignant glioma cell), all of which are purchased from Fuxiang Bio-tech Co. Ltd., Shanghai, China; PANC-1 (pancreatic cancer), Huh7 (human liver cancer cell), Becap37 (human breast cancer cell), and Hela (human cervical cancer cell), all of which are donated by Cancer Research Institute of Zhejiang University, China.
(§2) Obtaining 4000 well-growing human solid tumor cells and inoculating them into wells of a 96-well cell culture plate. The culture medium is DMEM High Glucose cell culture medium containing 10% fetal bovine serum. The plate is placed in a carbon dioxide cell incubator (5% CO2) at 37° C. and incubated for 24 hours. After adding the homoharringtonine derivatives of different concentration and mixing uniformly, the plate is placed in a carbon dioxide cell incubator (5% CO2) at 37° C. and incubated for 72 hours. Then the viable cell concentration is determined by the MTT method and the cell viability (%) after drug treatment is calculated. In this experiment, the cell viability of control group (not treated with any compound) is set as 100%.

[2] = system: Huh7 (human liver cancer cell); test: as above; assay type: cell-based
Procedure: as §1, §2

[3] = system: CaES-17 (esophageal cancer cell); test: as above; assay type: cell-based
Procedure: as §1, §2

PC-3 (prostate cancer) = test: as above; assay type: cell-based; settings: MTT
Procedure: as §1, §2

[4] = system: PANC-1 (pancreatic cancer); test: as above; assay type: cell-based
Procedure: as §1, §2

[5] = system: MGC 803 (human gastric cancer cell); test: as above; assay type: cell-based
Procedure: as §1, §2

MG63 (osteosarcoma) = test: as above; assay type: cell-based
Procedure: as §1, §2

[6] = system: Hela (human cervical cancer cell); test: as above; assay type: cell-based; settings: MTT
Procedure: as §1, §2

[7] = system: SK-OV-3 (ovarian cancer cell); test: as above; assay type: cell-based
Procedure: as §1, §2

[8] = system: CNE (nasopharyngeal carcinoma cell); test: as above; assay type: cell-based; settings: MTT
Procedure: as §1, §2

[9] = system: U87 MG (malignant glioma cell); test: as above; assay type: cell-based
Procedure: as §1, §2

[10] = system: RKO (human colon adenocarcinoma cell); test: as above; assay type: cell-based; settings: MTT
Procedure: as §1, §2

A549 (human lung cancer) = test: as above; assay type: cell-based
Procedure: as §1, §2

[11] = system: Hep-2 (laryngeal carcinoma); test: as above; assay type: cell-based
Procedure: as §1, §2

[12] = system: RPMI8226 (multiple myeloma); test: MTT growth inhibition of multiple myeloma cells, 72 h; assay type: cell-based, human
Procedure: Multiple myeloma and lymphoma cell lines: RPMI8226 (multiple myeloma), purchased from Fuxiang Bio-tech Co. Ltd., Shanghai, China.
(§3) Obtaining 6000 well-growing leukemia cells and inoculating them into wells of a 96-well cell culture plate. The culture medium is the 1640 cell culture medium containing 10% fetal bovine serum. After adding the homoharringtonine derivatives of different concentrations and mixing uniformly, placing the plate in a carbon dioxide cell incubator (5% CO2) at 37° C. and incubated for 72 hours. Then the viable cell concentration is determined by the MTT method. In this experiment, the cell viability in control group (not treated with any compound) is set as 100%. On such basis, the cell viability (%) after treatment and the 50% inhibiting concentration of the compound for the leukemia cell growth at 72 hours (IC50 value of 72 hours) are calculated.

[13] = system: H9 (acute lymphoblastic leukemia, ALL); test: MTT growth inhibition of leukemia cells, 72 h; assay type: cell-based, human; settings: MTT
Excerpt: (§4) Leukemia cell lines: leukemia cell lines: K562/adr (drug-resistant, chronic myeloid leukemia, CML), NB4 (acute promyelocytic leukemia, AML), Kasumi-1 (acute myeloid leukemia M2 type, AML-M2), Jurkat (acute lymphoblastic leukemia, ALL), all of which are donated by Cancer Research Institute of Zhejiang University, China; and H9 (acute lymphoblastic leukemia, ALL), which is purchased from China Center for Type Culture Collection (CCTCC).
(§5) Reagents: The standard sample of homoharringtonine (HHT) is purchased from Taihua Natural Plant Pharmaceutical Co., Ltd., Shaanxi, China, the homoharringtonine derivatives of the present invention.
as §3

[14] = system: K562/adr (drug-resistant, chronic myeloid leukemia, CML); test: MTT growth inhibition of leukemia cells, 72 h; assay type: cell-based, human; settings: MTT
Excerpt: as §4, §5, §3

[15] = system: Kasumi-1 (acute myeloid leukemia M2 type, AML-M2); test: MTT growth inhibition of leukemia cells, 72 h; assay type: cell-based, human
Excerpt: as §4, §5, §3

[16] = system: Jurkat (acute lymphoblastic leukemia, ALL); test: MTT growth inhibition of leukemia cells, 72 h; assay type: cell-based, human
Excerpt: as §4, §5, §3

[17] = system: NB4 (acute promyelocytic leukemia, AML); test: MTT growth inhibition of leukemia cells, 72 h; assay type: cell-based, human; settings: MTT
Excerpt: as §4, §5, §3

In the case of `COC(=O)C[C@](O)(CCCC(C)(C)OC(=O)C1CCCCC1)C(=O)O[C@@H]1C(OC)=C[C@]23CCCN2CCc2cc4c(cc2[C@H]13)OCO4` [BS-HH-076], the “IC50 Becap37” value [1] is reported as 0.01 µg/mL (≈ 0.0152 µM), the “IC90 Becap37” value [1] is reported as 6.4 µg/mL (≈ 9.76 µM) and the “IC50 Huh7” value [2] is reported as 0.008 µg/mL (≈ 0.0122 µM). For the same compound, the “IC90 Huh7” value [2] was 0.096 µg/mL (≈ 0.146 µM), the “IC50 CaES-17” value [3] was 0.039 µg/mL (≈ 0.0595 µM) and the “IC90 CaES-17” value [3] was 16 µg/mL (≈ 24.4 µM). For the same compound, the “IC50 PC-3” value (PC-3 (prostate cancer)) was 0.03 µg/mL (≈ 0.0457 µM), the “IC90 PC-3” value (PC-3 (prostate cancer)) was >16 µg/mL and the “IC50 PANC-1” value ([4]; MTT) was 0.042 µg/mL (≈ 0.064 µM). For the same compound, the “IC90 PANC-1” value ([4]; MTT) was >16 µg/mL, the “IC50 MGC 803” value [5] was 0.025 µg/mL (≈ 0.0381 µM) and the “IC90 MGC 803” value [5] was 0.098 µg/mL (≈ 0.149 µM). For the same compound, the “IC50 MG 63” value (MG63 (osteosarcoma); MTT) was 0.022 µg/mL (≈ 0.0335 µM), the “IC90 MG 63” value (MG63 (osteosarcoma); MTT) was 1.72 µg/mL (≈ 2.62 µM) and the “IC50 Hela” value [6] was 0.011 µg/mL (≈ 0.0168 µM). The “IC90 Hela” value [6] was 10.25 µg/mL (≈ 15.6 µM), the “IC50 SK-OV-3” value ([7]; MTT) was 0.031 µg/mL (≈ 0.0473 µM) and the “IC90 SK-OV-3” value ([7]; MTT) was >16 µg/mL. For the same compound, the “IC50 CNE” value [8] was 0.029 µg/mL (≈ 0.0442 µM), the “IC90 CNE” value [8] was >16 µg/mL and the “IC50 U87 MG” value [9] was 0.009 µg/mL (≈ 0.0137 µM). For the same compound, the “IC90 U87 MG” value [9] was 0.067 µg/mL (≈ 0.102 µM), the “IC50 RKO” value [10] was 0.008 µg/mL (≈ 0.0122 µM) and the “IC90 RKO” value [10] was 0.02 µg/mL (≈ 0.0305 µM). The “IC50 A549” value (A549 (human lung cancer)) was 0.03 µg/mL (≈ 0.0457 µM), the “IC90 A549” value (A549 (human lung cancer)) was >16 µg/mL and the “IC50 Hep-2” value [11] was 0.012 µg/mL (≈ 0.0183 µM). The “IC90 Hep-2” value [11] was >16 µg/mL, the “IC50 RPMI8226” value ([12]; MTT) was 0.007 µg/mL (≈ 0.0107 µM) and the “IC90 RPMI8226” value ([12]; MTT) was 0.034 µg/mL (≈ 0.0518 µM). The “IC50 H9” value [13] was 0.01 µg/mL (≈ 0.0152 µM), the “IC90 H9” value [13] was 0.04 µg/mL (≈ 0.061 µM) and the “IC50 K562/adr” value [14] was 0.02 µg/mL (≈ 0.0305 µM). For the same compound, the “IC90 K562/adr” value [14] was 0.21 µg/mL (≈ 0.32 µM), the “IC50 Kasumi-1” value ([15]; MTT) was 0.006 µg/mL (≈ 0.00915 µM) and the “IC90 Kasumi-1” value ([15]; MTT) was 0.023 µg/mL (≈ 0.0351 µM). For the same compound, the “IC50 Jurkat” value [16] was 0.006 µg/mL (≈ 0.00915 µM), the “IC90 Jurkat” value [16] was 6.24 µg/mL (≈ 9.52 µM) and the “IC50 NB4” value [17] was 0.009 µg/mL (≈ 0.0137 µM). The “IC90 NB4” value [17] was 0.022 µg/mL (≈ 0.0335 µM).

Work on `COC(=O)C[C@](O)(CCCC(C)(C)O)C(=O)O[C@@H]1C(OC)=C[C@]23CCCN2CCc2cc4c(cc2[C@H]13)OCO4` [HHT, O-3-[(2R)-2,6-dihydroxy-2-(2′-methoxy-2′-oxoethyl)-6-methylheptanoyl]cephalotaxine, reference compound] yielded an IC50 ([1]; Homo sapiens) of 0.01 µg/mL (≈ 0.0183 µM), an IC90 ([1]; Homo sapiens) of 11.6 µg/mL (≈ 21.2 µM) and an IC50 ([2]; Homo sapiens, Huh-7) of 0.004 µg/mL (≈ 0.00733 µM). For the same compound, the IC90 ([2]; Homo sapiens, Huh-7) was 0.049 µg/mL (≈ 0.0898 µM), the IC50 ([3]; Homo sapiens, CaEs17) was 0.037 µg/mL (≈ 0.0678 µM) and the IC90 ([3]; Homo sapiens, CaEs17) was > 16 µg/mL. For the same compound, the IC50 (PC-3 (prostate cancer); Homo sapiens) was 0.08 µg/mL (≈ 0.147 µM), the IC90 (PC-3 (prostate cancer); Homo sapiens) was > 16 µg/mL and the IC50 ([4]; Homo sapiens, PANC-1, MTT) was 0.035 µg/mL (≈ 0.0641 µM). The IC90 ([4]; Homo sapiens, PANC-1, MTT) was > 16 µg/mL, the IC50 ([5]; Homo sapiens, MGC-803) was 0.016 µg/mL (≈ 0.0293 µM) and the IC90 ([5]; Homo sapiens, MGC-803) was 0.2 µg/mL (≈ 0.367 µM). For the same compound, the IC50 (MG63 (osteosarcoma); Homo sapiens, MG-63, MTT) was 0.01 µg/mL (≈ 0.0183 µM), the IC90 (MG63 (osteosarcoma); Homo sapiens, MG-63, MTT) was 1.2 µg/mL (≈ 2.2 µM) and the IC50 ([6]; Homo sapiens, HeLa) was 0.019 µg/mL (≈ 0.0348 µM). For the same compound, the IC90 ([6]; Homo sapiens, HeLa) was 16 µg/mL (≈ 29.3 µM), the IC50 ([7]; Homo sapiens, SK-OV-3, MTT) was 0.09 µg/mL (≈ 0.165 µM) and the IC90 ([7]; Homo sapiens, SK-OV-3, MTT) was > 16 µg/mL. The IC50 ([8]; Homo sapiens) was 0.038 µg/mL (≈ 0.0696 µM), the IC90 ([8]; Homo sapiens) was > 16 µg/mL and the IC50 ([9]; Homo sapiens, U-87 MG) was 0.004 µg/mL (≈ 0.00733 µM). For the same compound, the IC90 ([9]; Homo sapiens, U-87 MG) was 0.018 µg/mL (≈ 0.033 µM), the IC50 ([10]; Homo sapiens) was 0.003 µg/mL (≈ 0.0055 µM) and the IC90 ([10]; Homo sapiens) was 0.009 µg/mL (≈ 0.0165 µM). For the same compound, the IC50 (A549 (human lung cancer); Homo sapiens, A549) was 0.03 µg/mL (≈ 0.055 µM), the IC90 (A549 (human lung cancer); Homo sapiens, A549) was > 16 µg/mL and the IC50 ([11]; Homo sapiens, HEp-2) was 0.014 µg/mL (≈ 0.0257 µM). The IC90 ([11]; Homo sapiens, HEp-2) was > 16 µg/mL, the IC50 ([12]; Homo sapiens, RPMI-8226, MTT) was 0.006 µg/mL (≈ 0.011 µM) and the IC90 ([12]; Homo sapiens, RPMI-8226, MTT) was 0.027 µg/mL (≈ 0.0495 µM). For the same compound, the IC50 ([13]; Homo sapiens) was 0.02 µg/mL (≈ 0.0367 µM), the IC90 ([13]; Homo sapiens) was 0.046 µg/mL (≈ 0.0843 µM) and the IC50 ([14]; Homo sapiens, K562/Adr) was 0.035 µg/mL (≈ 0.0641 µM). For the same compound, the IC90 ([14]; Homo sapiens, K562/Adr) was 0.98 µg/mL (≈ 1.8 µM), the IC50 ([15]; Homo sapiens, Kasumi 1, MTT) was 0.005 µg/mL (≈ 0.00916 µM) and the IC90 ([15]; Homo sapiens, Kasumi 1, MTT) was 0.024 µg/mL (≈ 0.044 µM). For the same compound, the IC50 ([16]; Homo sapiens, Jurkat) was 0.007 µg/mL (≈ 0.0128 µM), the IC90 ([16]; Homo sapiens, Jurkat) was ≥ 16 µg/mL and the IC50 ([17]; Homo sapiens) was 0.006 µg/mL (≈ 0.011 µM). The IC90 ([17]; Homo sapiens) was 0.012 µg/mL (≈ 0.022 µM).
